Source: ChEMBL document CHEMBL1141434, “Chlorocyclinones A-D, chlorinated angucyclinones from Streptomyces sp. strongly antagonizing rosiglitazone-induced PPAR-gamma activation” (J Nat Prod, 2007)

Columns and labels:
[1] = biological target: T1, Peroxisome proliferator-activated receptor gamma (Homo sapiens, UniProt P37231); test: Antagonist activity at human PPARgamma receptor in CHO-K1 cells assessed as rosiglitazone-induced receptor activation by cell based reporter assay; type: functional
T1 sequence (P37231 whole entry): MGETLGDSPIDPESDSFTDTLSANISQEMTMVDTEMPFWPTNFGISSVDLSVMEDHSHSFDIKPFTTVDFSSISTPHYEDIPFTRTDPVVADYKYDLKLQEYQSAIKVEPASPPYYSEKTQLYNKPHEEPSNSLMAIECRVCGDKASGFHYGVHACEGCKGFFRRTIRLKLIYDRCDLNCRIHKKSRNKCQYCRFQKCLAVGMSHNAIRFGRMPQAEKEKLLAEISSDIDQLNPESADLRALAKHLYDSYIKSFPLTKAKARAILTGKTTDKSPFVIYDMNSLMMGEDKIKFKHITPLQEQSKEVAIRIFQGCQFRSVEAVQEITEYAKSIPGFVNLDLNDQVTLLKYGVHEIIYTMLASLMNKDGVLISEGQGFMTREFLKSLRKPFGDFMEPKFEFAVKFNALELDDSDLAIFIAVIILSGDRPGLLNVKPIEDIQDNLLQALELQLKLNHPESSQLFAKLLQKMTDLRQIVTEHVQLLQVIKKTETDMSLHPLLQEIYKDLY

[2] = biological target: T1, Peroxisome proliferator-activated receptor gamma; test: Antagonist activity at human PPARgamma receptor assessed as rosiglitazone-induced receptor activation by alphascreen assay; type: functional
[3] = biological target: T1, Peroxisome proliferator-activated receptor gamma; test: Displacement of [3H]rosiglitazone from human PPARgamma receptor by scintillation proximity assay

Compound | IC50 [1] [nM] | IC50 [2] [nM] | EC50 [3] [nM]
CCc1c(C(=O)OC)cc2c(c1O)C(=O)c1c(O)cc3cc(C)c(Cl)c(OC)c3c1C2=O [CHLOROCYCLINONE A] | 7000 | 160 | 180
COC(=O)c1cc2c(c(O)c1C(C)OC(C)=O)C(=O)c1c(O)cc3cc(C)c(Cl)c(OC)c3c1C2=O (configuration not stated) [CHLOROCYCLINONE B] | 1400 | 100 | 160
COC(=O)c1cc2c(c(O)c1C(C)OC(=O)CO)C(=O)c1c(O)cc3cc(C)c(Cl)c(OC)c3c1C2=O (configuration not stated) [CHLOROCYCLINONE C] | 600 | 90 | 130
COc1c(Cl)c(C)cc2cc(O)c3c(c12)C(=O)c1cc2c(c(O)c1C3=O)C(C)OC2=O (configuration not stated) [CHLOROCYCLINONE D] | 4400 | 320 | 260
